Data set [1] has as its system SKOV-3 cell line. The data set is described as follows: In vitro cell viability assay of FA-CDCs (CellTiter-Glo2.0). The following applies: FA ligands per particle 12-22; linker-drug conjugates per particle 17-25; read-out: IC50 inSKOV-3 cell line (+++). Type of data set: cell-based. The protocol:
(§1) The in vitro cytotoxicity of the NDCs disclosed herein were tested in cancer cells. The cancer cells were cultured in folic acid-free medium (RPMI1640, ThermoFisher, GIBCO) for at least one week before the study. Cells were plated in opaque 96-well plates at a density of 3×10^3 cells per well (total of […]) and allowed to attach overnight. The following day, cells were treated with NDC (FA-CDC) prepared using the linker-payload conjugate precursor compound 202 (Example 33), at a concentration range of 0-50 nM (0, 0.001, 0.005, 0.01, 0.05, 0.1, 0.5, 1, 5, 10, 50 nM) by adding […] of 10x stock FA-CDC Solution.
(§2) Cells were treated for a pre-defined exposure time (depending on the study design, e.g., 4-6 hours, or 7 days). In the case of short-exposure-time viability study, cancer cells in each wells were washed with […] PBS and refreshed with […] of cell medium. After washing, the plates were returned back to 37° C. incubator for 7 days before the viability assay. In the case of 7-day-exposure-time viability study, no additional washing step was performed. After 7 days, the cell viability was assessed using the CellTiter-Glo2.0 assay (Promega) according to manufacturer's instructions. Data for both viability and proliferation were plotted using Prism7 software (GraphPad). Representative cell viability results of six FA-CDCs with similar surface density of Folic Acid targeting ligands and drug linkers is presented in provided in Table 4.
(In general: Cellular ATP, detected with luciferase, serves as a proxy for viable cell number.)

A short description of data set [2]: Drug-release assay of nanoparticle-conjugated linker-payloads under cleavage conditions (Cat-B, redox-responsive or pH-sensitive cleaving study), RP-HPLC. The class given is in vitro ADME. The following applies: linker-payload conjugated to DBCO-functionalized silica nanoparticle, 37° C., 24 hours. Put shortly:
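Azide linker-drugs were click-conjugated to DBCO-functionalized ultrasmall silica nanoparticles and incubated under cleavage conditions, e.g., Cat-B in 25 mM MES, 5 mM DTT, pH 5.0. Released versus non-released drug was quantified by C18 RP-HPLC peak area. Gradients were 0.01% TFA water/acetonitrile for protease/redox linkers and water/acetonitrile for pH-sensitive linkers.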

The test system of data set [3] is KB cell line. Conditions: read-out: IC50 in KB cell line (++++); FA ligands per particle 12-22; linker-drug conjugates per particle 17-25. The protocol: as §1
as §2, with “(GraphPad).” for “(GraphPad). Representative cell viability results of six FA-CDCs with similar surface density of Folic Acid targeting ligands and drug linkers is presented in provided in Table 4.”

In data set [4] the test system is Human KB cells. The data set is described as follows: Cell viability assay of payloads (CellTiter-Glo 2.0). Type of data set: cell-based. Conditions: Homo sapiens, KB, 168 h, read-out: IC50 values (diluted in RPMI medium). The protocol:
Method: Human KB cells (ATCC® CCL-17™) were cultured in folic acid free rpmi-1640 medium (ThermoFisher, GIBCO) for at least 7 days before the study. The cells were seeded in opaque 96-well plates and allowed to attach overnight (cell density was carefully controlled to be 3,000 cells per well at the time of assay). After that, cells were treated with drug analogs (suspended in the same RPMI-1640 medium) at a concentration of zero to 1,000 nM. After 7 days, cell viability was assessed using the CellTiter-Glo® 2.0 assay (Promega) according to the manufacturer's instructions. The percent of viable cells at each concentration was calculated by normalizing the luminescence values to the untreated control. The half-maximal inhibitory concentration (IC50) of the payloads were plotted and fitted by using the Prism 8 software (GraphPad). Table 2 provides the IC50 of the payloads of the present disclosure (‘+’ indicates 1-9.9 nm; ‘++’ indicates 10-100 nm).

One may read the IC50 as the midpoint of a concentration-inhibition curve. Consider `CC[C@@]1(O)C(=O)OCc2c1cc1n(c2=O)Cc2c-1nc1cc(F)c(C)c3c1c2[C@@H](NC(=O)OCc1ccc(NC(=O)[C@H](CCCNC(N)=O)NC(=O)[C@@H](NC(=O)CCOCCOCCOCCOCCOCCOCCOCCOCCOCCN=[N+]=[N-])C(C)C)cc1)CC3` [Example 10, 4-((32S,35S)-1-azido-32-isopropyl-30,33-dioxo-35-(3-ureidopropyl)-3,6,9,12,15,18,21,24,27-nonaoxa-31,34-diazahexatriacontan-36-amido)benzyl-((1S,9S)-9-ethyl-5-fluoro-9-hydroxy-4-methyl-10,13-dioxo-2,3,9,10,13,15-hexahydro-1H,12H-benzo-[de]-pyrano-[3′,4′:6,7]-indolizino-[1,2-b]-quinolin-1-yl)-carbamate], for which, in data set [1], the 50% inhibitory concentration (IC50) came to 10.7 nM. Besides, the “% of Payload Release in 24 Hours Under Cleavage Conditions” value (shortened to “% of Payload Release”) in data set [2] is recorded as “+++ (‘+++’ indicates 51-75% release)”.

For `CCc1c2c(nc3ccc(OCCCNC(=O)OCc4ccc(NC(=O)[C@H](CCCCN)NC(=O)[C@H](Cc5ccccc5)NC(=O)CCOCCOCCOCCOCCOCCOCCOCCOCCOCCN=[N+]=[N-])cc4)cc13)-c1cc3c(c(=O)n1C2)COC(=O)[C@]3(O)CC` [Example 28, 4-((32S,35S)-35-(4-aminobutyl)-1-azido-32-benzyl-30,33-dioxo-3,6,9,12,15,18,21,24,27-nonaoxa-31,34-diazahexatriacontan-36-amido)benzyl (3-(((S)-4,11-diethyl-4-hydroxy-3,14-dioxo-3,4,12,14-tetrahydro-1H-pyrano[3′,4′:6,7]indolizino[1,2-b]quinolin-9-yl)oxy)propyl)carbamate], in data set [2], the “% of Payload Release” value is “+++ (‘+++’ indicates 51-75% release)”. In data set [3], the concentration for half-maximal inhibition (IC50) came out at 72.2 nM. As to `CC[C@@]1(O)C(=O)OCc2c1cc1n(c2=O)Cc2c-1nc1cc(F)c(C)c3c1c2[C@@H](NC(=O)OCc1ccc(NC(=O)[C@H](CCCCN)NC(=O)[C@H](Cc2ccccc2)NC(=O)CCOCCOCCOCCOCCOCCOCCOCCOCCOCCN=[N+]=[N-])cc1)CC3` (single isomer, unassigned) [Example 25], the IC50 in data set [1] is 0.4 nM. For the same molecule, the “% of Payload Release” value in data set [2] is “+++ (‘+++’ indicates 51-75% release)”.

In the case of `CC[C@@]1(O)C(=O)OCc2c1cc1n(c2=O)Cc2c-1nc1cc(F)c(C)c3c1c2[C@@H](NC(=O)C(O)c1ccc(N)cc1)CC3` (stereo partly drawn) [Example 458, 2-(4-aminophenyl)-N-((1S,9S)-9-ethyl-5-fluoro-9-hydroxy-4-methyl-10,13-dioxo-2,3,9,10,13,15-hexahydro-1H,12H-benzo[de]pyrano[3′,4′:6,7]indolizino[1,2-b]quinolin-1-yl)-2-hydroxyacetamide], the concentration for half-maximal inhibition (IC50) in data set [4] was in the range of 1 to 9.9 nM.

As to `CC[C@@]1(O)C(=O)OCc2c1cc1n(c2=O)Cc2c-1nc1cc(F)c(C)c3c1c2[C@@H](NC(=O)OCc1ccc(SSC(C)(C)CNC(=O)CCOCCOCCOCCOCCOCCOCCOCCOCCOCCN=[N+]=[N-])cc1)CC3` [Example 58, 4-((1-azido-33-methyl-30-oxo-3,6,9,12,15,18,21,24,27-nonaoxa-31-azatetratriacontan-33-yl)disulfanyl)benzyl ((1S,9S)-9-ethyl-5-fluoro-9-hydroxy-4-methyl-10,13-dioxo-2,3,9,10,13,15-hexahydro-1H,12H-benzo[de]pyrano[3′,4′:6,7]indolizino[1,2-b]quinolin-1-yl)carbamate], the “% of Payload Release” value in data set [2] is listed as “++++ (‘++++’ indicates 76-100% release)”. The IC50 in data set [3] came out at 49.4 nM. As to `CC[C@@]1(O)C(=O)OCc2c1cc1n(c2=O)Cc2c-1nc1cc(F)c(C)c3c1c2[C@@H](NC(=O)OCc1c(F)cc(NC(=O)[C@H](CCCNC(N)=O)NC(=O)[C@@H](NC(=O)CCOCCOCCOCCOCCOCCOCCOCCOCCOCCN=[N+]=[N-])C(C)C)cc1F)CC3` (single isomer, unassigned) [Example 27, 4-((32s,35s)-1-azido-32-isopropyl-30,33-dioxo-35-(3-ureidopropyl)-3,6,9,12,15,18,21,24,27-nonaoxa-31,34-diazahexatriacontan-36-amido)-2,6-difluorobenzyl ((1s,9s)-9-ethyl-5-fluoro-9-hydroxy-4-methyl-10,13-dioxo-2,3,9,10,13,15-hexahydro-1H,12H-benzo[de]pyrano[3′,4′:6,7]indolizino[1,2-b]quinolin-1-yl)carbamate], the “% of Payload Release” value in data set [2] was “++++ (‘++++’ indicates 76-100% release)”. Moreover, the 50% inhibitory concentration (IC50) in data set [3] was determined as 5.2 nM. Consider `CCc1c2c(nc3ccc(OCC(=O)N/N=C(\C)c4cccc(OCCOCCOCCOCCOCCOCCN=[N+]=[N-])c4)cc13)-c1cc3c(c(=O)n1C2)COC(=O)[C@]3(O)CC` [Example 70, (S,E)-N′-(1-(3-((17-azido-3,6,9,12,15-pentaoxaheptadecyl)oxy)phenyl)ethylidene)-2-((4,11-diethyl-4-hydroxy-3,14-dioxo-3,4,12,14-tetrahydro-1H-pyrano[3′,4′:6,7]indolizino[1,2-b]quinolin-9-yl)oxy)acetohydrazide], for which, in data set [1], the IC50 turned out to be 17.9 nM.

As for `CC[C@@]1(O)C(=O)OCc2c1cc1n(c2=O)Cc2c-1nc1cc(F)c(C)c3c1c2[C@@H](Nc1nc(Cl)nc(NCCSSC(C)(C)CN)n1)CC3` [Example 377, (1S,9S)-1-((4-((2-((1-amino-2-methylpropan-2-yl)disulfaneyl)ethyl)amino)-6-chloro-1,3,5-triazin-2-yl)amino)-9-ethyl-5-fluoro-9-hydroxy-4-methyl-1,2,3,9,12,15-hexahydro-10H,13H-benzo[de]pyrano[3′,4′:6,7]indolizino[1,2-b]quinoline-10,13-dione 2,2,2-trifluoroacetate], in data set [4], the IC50 was 10 to 100 nM. As for `CC[C@@]1(O)C(=O)OCc2c1cc1n(c2=O)Cc2c-1nc1cc(F)c(C)c3c1c2[C@@H](NC(=O)C(O)c1ccc(NC(=O)[C@H](CCCNC(N)=O)NC(=O)[C@@H](NC(=O)CCOCCOCCOCCOCCOCCOCCN=[N+]=[N-])C(C)C)cc1)CC3` (stereo partly drawn) [Example 18, 1-azido-N-((2S)-1-(((2S)-1-((4-(2-(((1S,9S)-9-ethyl-5-fluoro-9-hydroxy-4-methyl-10,13-dioxo-2,3,9,10,13,15-hexahydro-1H,12H-benzo[de]pyrano[3′,4′:6,7]indolizino[1,2-b]quinolin-1-yl)amino)-1-hydroxy-2-oxoethyl)phenyl)amino)-1-oxo-5-ureidopentan-2-yl)amino)-3-methyl-1-oxobutan-2-yl)-3,6,9,12,15,18-hexaoxahenicosan-21-amide], in data set [2], the “% of Payload Release” value is listed as “+++ (‘+++’ indicates 51-75% release)”. Moreover, the half-inhibitory concentration (IC50) in data set [3] was 17.5 nM. With `CCc1c2c(nc3ccc(OC(C)(C)C(=O)NN)cc13)-c1cc3c(c(=O)n1C2)COC(=O)[C@]3(O)CC` [Example 422, (S)-2-((4,11-diethyl-4-hydroxy-3,14-dioxo-3,4,12,14-tetrahydro-1H-pyrano[3′,4′:6,7]indolizino[1,2-b]quinolin-9-yl)oxy)-2-methylpropanehydrazide], the half-maximal inhibitory concentration (IC50) in data set [4] lay within 10 to 100 nM.

As for `CCc1c2c(nc3ccc(OCCCSC(C)=O)cc13)-c1cc3c(c(=O)n1C2)COC(=O)[C@]3(O)CC` [Example 327], the concentration for half-maximal inhibition (IC50) in data set [4] lay in the range of 10 to 100 nM. The same measure, in the same setting: then `CCc1c2c(nc3ccc(OCCCSSC(C)(C)CN)cc13)-c1cc3c(c(=O)n1C2)COC(=O)[C@]3(O)CC` [Example 331], with 10 to 100 nM. Consider `CCc1c2c(nc3ccc(OCC(=O)N/N=C(\C)c4ccc(OCCCCOCCOCCOCCOCCOCCOCCN=[N+]=[N-])cc4)cc13)-c1cc3c(c(=O)n1C2)COC(=O)[C@]3(O)CC` [Example 75, (S,E)-N′-(1-(4-((1-azido-3,6,9,12,15,18-hexaoxadocosan-22-yl)oxy)phenyl)ethylidene)-2-((4,11-diethyl-4-hydroxy-3,14-dioxo-3,4,12,14-tetrahydro-1H-pyrano[3′,4′:6,7]indolizino[1,2-b]quinolin-9-yl)oxy)acetohydrazide], for which the IC50 in data set [3] was determined as 42.7 nM.
